Assay results reported in ChEMBL document CHEMBL1130155, “Synthesis and structure-activity relationships of potent thrombin inhibitors: piperazides of 3-amidinophenylalanine” (J Med Chem, 1997).

Key:
Prothrombin [1] = target: T1, Prothrombin (Bos taurus, UniProt P00735); assay: Inhibitory activity against thrombin.
Coagulation factor X = Coagulation factor X (Bos taurus, UniProt P00743); assay: Inhibitory activity against coagulation factor X.
Plasminogen [2] = target: T2, Plasminogen (Homo sapiens, UniProt P00747); assay: Inhibitory activity against plasmin
Serine protease 1 = target: T3, Serine protease 1 (Bos taurus, UniProt P00760); assay: Inhibitory activity against trypsin
T3 sequence (P00760 whole entry): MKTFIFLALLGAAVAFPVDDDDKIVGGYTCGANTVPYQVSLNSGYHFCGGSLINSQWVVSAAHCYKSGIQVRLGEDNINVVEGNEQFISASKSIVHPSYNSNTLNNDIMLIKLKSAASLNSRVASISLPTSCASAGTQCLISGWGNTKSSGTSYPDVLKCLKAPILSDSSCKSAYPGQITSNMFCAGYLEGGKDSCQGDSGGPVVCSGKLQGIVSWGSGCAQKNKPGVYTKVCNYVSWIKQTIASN

Prothrombin [3] = target: T1, Prothrombin
[4] = target: Vitamin K-dependent protein C (Homo sapiens, UniProt P04070); assay: Inhibitory activity against Activated protein C
Coagulation factor XII = target: T4, Coagulation factor XII (Homo sapiens, UniProt P00748); assay: Inhibitory activity against Coagulation factor XII
T4 sequence (P00748 whole entry): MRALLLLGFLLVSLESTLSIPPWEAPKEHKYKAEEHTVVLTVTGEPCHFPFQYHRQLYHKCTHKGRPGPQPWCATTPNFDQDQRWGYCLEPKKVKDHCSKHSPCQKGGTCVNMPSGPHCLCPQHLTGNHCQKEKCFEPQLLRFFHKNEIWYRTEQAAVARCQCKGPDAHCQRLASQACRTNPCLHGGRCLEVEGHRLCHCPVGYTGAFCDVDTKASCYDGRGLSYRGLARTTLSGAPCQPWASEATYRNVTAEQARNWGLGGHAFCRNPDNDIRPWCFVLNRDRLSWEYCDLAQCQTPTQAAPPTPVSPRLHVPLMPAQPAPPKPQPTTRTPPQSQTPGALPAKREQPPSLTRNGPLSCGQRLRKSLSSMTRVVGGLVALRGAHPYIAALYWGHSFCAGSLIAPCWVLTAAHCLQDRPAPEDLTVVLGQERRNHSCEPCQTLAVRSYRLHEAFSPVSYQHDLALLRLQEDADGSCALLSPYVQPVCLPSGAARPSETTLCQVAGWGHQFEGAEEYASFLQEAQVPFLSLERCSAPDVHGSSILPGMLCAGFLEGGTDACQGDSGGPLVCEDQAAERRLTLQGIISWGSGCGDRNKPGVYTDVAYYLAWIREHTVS

[5] = Concentration for doubling of partial thromboplastin time; format: functional, Homo sapiens
[6] = Concentration for doubling of prothrombin time; format: functional, Homo sapiens
[7] = Concentration for doubling of thrombin time; format: functional, Homo sapiens
Plasma kallikrein [8] = target: T5, Plasma kallikrein (Homo sapiens, UniProt P03952); assay: Inhibitory activity against Kallikrein (PK)
Plasminogen [9] = target: T2, Plasminogen; assay: Inhibitory activity against Plasmin.
[10] = target: Tissue-type plasminogen activator (Homo sapiens, UniProt P00750); assay: Inhibitory activity against single-chain tissue-type plasminogen activator (sc-tissue plasminogen activator)
[11] = target: T6, Urokinase-type plasminogen activator (Homo sapiens, UniProt P00749); assay: Inhibitory activity against UK.
Plasma kallikrein [12] = target: T5, Plasma kallikrein; assay: Inhibitory activity against plasma kallikrein (PK.); format: cell-free
[13] = target: T6, Urokinase-type plasminogen activator; assay: Inhibitory activity against urokinase (UK )
[14] = 1 mg/kg was administered intravenously in anesthetized rats and the concentration in plasma was determined after 240 minutes.; details: rat, iv
[15] = 1 mg/kg was administered intravenously in anesthetized rats and the concentration in plasma was determined after 30 minutes.; details: rat, iv
[16] = 1 mg/kg was administered intravenously in anesthetized rats and the concentration in plasma was determined after 45 minutes.; details: rat, iv
[17] = 1 mg/kg was administered intravenously in anesthetized rats and the concentration in plasma was determined after 5 minutes.; details: rat, iv
[18] = 1 mg/kg was administered intravenously in anesthetized rats and the concentration in plasma was determined after 60 minutes.; details: rat, iv
[19] = 1 mg/kg was administered intravenously in anesthetized rats and the concentration in plasma was determined after 90 minutes.; details: rat, iv
[20] = 50 mg/kg was administered orally in anesthetized rats and the concentration in plasma was determined after 120 minutes.; details: rat, po
[21] = 50 mg/kg was administered orally in anesthetized rats and the concentration in plasma was determined after 15 minutes.; format: ADME, organism-based; details: rat, po, read-out: Activity
[22] = 50 mg/kg was administered orally in anesthetized rats and the concentration in plasma was determined after 180 minutes.; details: rat, po
[23] = 50 mg/kg was administered orally in anesthetized rats and the concentration in plasma was determined after 30 minutes.; details: rat, po
[24] = 50 mg/kg was administered orally in anesthetized rats and the concentration in plasma was determined after 45 minutes.; format: ADME, organism-based; details: rat, po, read-out: Activity
[25] = 50 mg/kg was administered orally in anesthetized rats and the concentration in plasma was determined after 5 minutes.; format: ADME, organism-based; details: rat, po, read-out: Activity
[26] = 50 mg/kg was administered orally in anesthetized rats and the concentration in plasma was determined after 60 minutes.; details: rat, po
[27] = 1 mg/kg was administered intravenously in anesthetized rats and the concentration in plasma was determined after 120 minutes.; details: rat, iv
[28] = 1 mg/kg was administered intravenously in anesthetized rats and the concentration in plasma was determined after 15 minutes.; details: rat, iv
[29] = 1 mg/kg was administered intravenously in anesthetized rats and the concentration in plasma was determined after 180 minutes.; details: rat, iv
[30] = 50 mg/kg was administered orally in anesthetized rats and the concentration in plasma was determined after 90 minutes.; format: ADME, organism-based; details: rat, po, read-out: Activity
[31] = 1 mg/kg was administered intravenously in anesthetized rats and the concentration in plasma was determined after 2 minutes.; details: rat, iv

Chain of Tissue-type plasminogen activator (P00750 whole entry): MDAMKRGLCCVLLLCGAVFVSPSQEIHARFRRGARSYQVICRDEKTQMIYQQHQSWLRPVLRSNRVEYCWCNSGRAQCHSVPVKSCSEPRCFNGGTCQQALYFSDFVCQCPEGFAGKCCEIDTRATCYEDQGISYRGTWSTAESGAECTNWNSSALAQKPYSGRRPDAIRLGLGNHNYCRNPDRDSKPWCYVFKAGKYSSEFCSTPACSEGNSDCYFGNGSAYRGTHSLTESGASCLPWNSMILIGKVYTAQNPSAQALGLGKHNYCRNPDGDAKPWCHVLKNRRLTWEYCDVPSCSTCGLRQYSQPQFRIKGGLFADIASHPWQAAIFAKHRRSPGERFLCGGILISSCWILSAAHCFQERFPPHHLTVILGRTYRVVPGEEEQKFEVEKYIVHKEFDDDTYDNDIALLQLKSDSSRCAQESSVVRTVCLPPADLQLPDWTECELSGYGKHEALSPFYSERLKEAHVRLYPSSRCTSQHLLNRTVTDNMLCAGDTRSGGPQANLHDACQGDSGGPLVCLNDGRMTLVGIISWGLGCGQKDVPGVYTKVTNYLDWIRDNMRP
Chain of Vitamin K-dependent protein C (P04070 43-197 limits assumed): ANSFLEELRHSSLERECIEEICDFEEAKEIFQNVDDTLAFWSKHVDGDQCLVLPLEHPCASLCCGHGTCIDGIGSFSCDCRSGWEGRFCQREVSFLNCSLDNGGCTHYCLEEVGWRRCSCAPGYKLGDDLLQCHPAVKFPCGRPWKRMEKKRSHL
Chain of Vitamin K-dependent protein C (P04070 212-461 limits assumed): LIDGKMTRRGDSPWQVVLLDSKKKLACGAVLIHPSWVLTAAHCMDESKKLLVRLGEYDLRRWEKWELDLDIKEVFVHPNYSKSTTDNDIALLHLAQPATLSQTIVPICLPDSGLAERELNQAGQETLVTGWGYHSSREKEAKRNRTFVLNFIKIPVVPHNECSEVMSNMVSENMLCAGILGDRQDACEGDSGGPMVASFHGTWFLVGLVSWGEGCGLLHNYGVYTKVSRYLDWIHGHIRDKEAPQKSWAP
Chain of Coagulation factor X (P00743 41-180 limits assumed): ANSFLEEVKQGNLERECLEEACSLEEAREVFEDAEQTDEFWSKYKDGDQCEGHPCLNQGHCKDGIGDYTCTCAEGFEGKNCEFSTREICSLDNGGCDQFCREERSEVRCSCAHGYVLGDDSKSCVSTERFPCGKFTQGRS
Chain of Coagulation factor X (P00743 234-492 limits assumed): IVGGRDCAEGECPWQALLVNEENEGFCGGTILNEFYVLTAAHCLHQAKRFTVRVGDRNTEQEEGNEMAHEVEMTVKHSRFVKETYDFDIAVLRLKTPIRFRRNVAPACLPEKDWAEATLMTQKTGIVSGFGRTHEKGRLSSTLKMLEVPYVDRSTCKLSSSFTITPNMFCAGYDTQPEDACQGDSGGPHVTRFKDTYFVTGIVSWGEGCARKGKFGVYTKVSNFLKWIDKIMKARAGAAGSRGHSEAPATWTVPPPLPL
T5 sequence (P03952 20-390 limits assumed): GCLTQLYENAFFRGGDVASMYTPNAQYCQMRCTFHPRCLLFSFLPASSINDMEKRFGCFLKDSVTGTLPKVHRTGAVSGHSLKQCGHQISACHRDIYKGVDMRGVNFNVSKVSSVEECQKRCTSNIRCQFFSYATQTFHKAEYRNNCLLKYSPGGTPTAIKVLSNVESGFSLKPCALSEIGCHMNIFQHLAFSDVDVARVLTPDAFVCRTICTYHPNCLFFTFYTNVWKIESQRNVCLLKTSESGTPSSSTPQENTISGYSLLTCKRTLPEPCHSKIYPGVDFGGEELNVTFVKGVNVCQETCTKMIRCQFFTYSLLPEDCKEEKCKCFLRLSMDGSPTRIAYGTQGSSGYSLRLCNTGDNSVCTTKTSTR
T5 sequence (P03952 391-638 limits assumed): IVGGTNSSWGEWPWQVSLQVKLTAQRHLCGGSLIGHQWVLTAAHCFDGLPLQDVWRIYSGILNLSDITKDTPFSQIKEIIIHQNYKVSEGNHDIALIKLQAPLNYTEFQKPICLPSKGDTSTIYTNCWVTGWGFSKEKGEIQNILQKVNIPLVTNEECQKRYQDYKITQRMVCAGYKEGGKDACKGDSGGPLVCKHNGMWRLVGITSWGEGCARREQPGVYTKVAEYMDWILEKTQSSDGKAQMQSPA
T2 sequence (P00747 97-580 limits assumed): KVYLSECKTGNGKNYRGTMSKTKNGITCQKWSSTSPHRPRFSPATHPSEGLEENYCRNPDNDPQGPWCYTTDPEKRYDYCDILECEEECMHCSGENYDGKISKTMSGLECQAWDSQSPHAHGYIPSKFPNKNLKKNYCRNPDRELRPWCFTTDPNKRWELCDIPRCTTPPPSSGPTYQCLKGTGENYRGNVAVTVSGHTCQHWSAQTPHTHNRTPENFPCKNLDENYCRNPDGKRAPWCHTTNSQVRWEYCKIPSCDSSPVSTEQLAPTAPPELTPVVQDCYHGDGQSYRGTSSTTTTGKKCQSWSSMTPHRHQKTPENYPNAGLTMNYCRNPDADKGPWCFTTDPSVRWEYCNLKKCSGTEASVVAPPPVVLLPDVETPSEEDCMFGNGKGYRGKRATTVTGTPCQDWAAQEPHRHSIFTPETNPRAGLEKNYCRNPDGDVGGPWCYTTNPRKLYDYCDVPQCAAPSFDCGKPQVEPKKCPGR
T2 sequence (P00747 581-810 limits assumed): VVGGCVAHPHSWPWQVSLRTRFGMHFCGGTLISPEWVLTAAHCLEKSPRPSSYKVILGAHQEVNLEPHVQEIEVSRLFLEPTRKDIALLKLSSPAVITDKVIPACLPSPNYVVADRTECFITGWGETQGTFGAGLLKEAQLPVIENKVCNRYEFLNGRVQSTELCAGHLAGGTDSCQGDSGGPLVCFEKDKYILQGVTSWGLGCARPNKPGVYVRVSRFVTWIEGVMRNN

Ki (Coagulation factor X) [µM]	Ki (Plasminogen [2]) [µM]	Ki (Serine protease 1) [µM]	Ki (Prothrombin [3]) [µM]	Structure (SMILES)	Ki [4] [µM]	Ki (Coagulation factor XII) [µM]	IC50 [5] [µM]	IC50 [6] [µM]	IC50 [7] [µM]	Ki (Plasma kallikrein [8]) [µM]	Ki (Plasminogen [9]) [µM]	Ki [10] [µM]	Ki [11] [µM]	other results
29	29	1	0.22	CS(=O)(=O)N1CCN(C(=O)C(Cc2cccc(C(=N)N)c2)NS(=O)(=O)c2ccccc2)CC1 (centres undefined)										
22	7.8	0.21	0.28	CCCS(=O)(=O)N1CCN(C(=O)C(Cc2cccc(C(=N)N)c2)NS(=O)(=O)c2ccc3ccccc3c2)CC1 (centres undefined)										
12	14	0.22	0.51	CCN(CC)C(=O)N1CCN(C(=O)C(Cc2cccc(C(=N)N)c2)NS(=O)(=O)c2ccc3ccccc3c2)CC1 (centres undefined)										
1.1		0.22	0.012	CC1(C)C2CCC1(CCS(=O)(=O)N[C@H](Cc1cccc(C(=N)N)c1)C(=O)N1CCN(S(C)(=O)=O)CC1)C(=O)C2 (some centres undefined)	33	55				22	14	20	49	
18	11	0.18	0.35	CCCCS(=O)(=O)N1CCN(C(=O)C(Cc2cccc(C(=N)N)c2)NS(=O)(=O)c2ccc3ccccc3c2)CC1 (centres undefined)										
54	2.5	0.022	0.67	CCOC(=O)N1CCN(C(=O)C(Cc2cccc(C(=N)N)c2)NS(=O)(=O)c2ccc3ccccc3c2)CC1 (centres undefined)										
80	8.6	0.049	1.04	CCCC(=O)N1CCN(C(=O)C(Cc2cccc(C(=N)N)c2)NS(=O)(=O)c2ccc3ccccc3c2)CC1 (centres undefined)										
1.1	14	0.22	0.012	CC1(C)C2CCC1(CCS(=O)(=O)NC(Cc1cccc(C(=N)N)c1)C(=O)N1CCN(S(C)(=O)=O)CC1)C(=O)C2 (stereo in doubt; 28)										
6.7	29	0.44	0.031	CC1(C)C2CCC1(CCS(=O)(=O)NC(Cc1cccc(C(=N)N)c1)C(=O)N1CCN(S(C)(=O)=O)CC1)C(=O)C2 (stereo in doubt; 30)										

Second part, the molecule before the results:

Structure (SMILES)	Ki (Coagulation factor X) [µM]	Ki (Plasminogen [2]) [µM]	Ki (Serine protease 1) [µM]	Ki (Prothrombin [3]) [µM]	Ki [4] [µM]	Ki (Coagulation factor XII) [µM]	IC50 [5] [µM]	IC50 [6] [µM]	IC50 [7] [µM]	Ki (Plasma kallikrein [8]) [µM]	Ki (Plasminogen [9]) [µM]	Ki [10] [µM]	Ki [11] [µM]	other results
CC1CCN(C(=O)[C@@H](Cc2cccc(C(=N)N)c2)NS(=O)(=O)c2ccc3ccccc3c2)CC1														Ki (Prothrombin [1]): 0.0025 µM
N=C(N)c1cccc(CC(NS(=O)(=O)c2ccc3ccccc3c2)C(=O)N2CCN(C(=O)c3ccc4ccccc4c3)CC2)c1 (centres undefined)	7.3	3	0.19	0.46										
N=C(N)c1cccc(C[C@@H](NS(=O)(=O)c2ccc3ccccc3c2)C(=O)N2CCN(CCO)CC2)c1	22		0.6	0.037	39	400	0.56	1.1	0.14	27	21	180	140	
CS(=O)(=O)N1CCN(C(=O)[C@@H](Cc2cccc(C(=N)N)c2)NS(=O)(=O)c2ccc3ccccc3c2)CC1	19		0.067		15.2	52	0.26	0.39	0.037	58	9	190	28	
CN(C)C(=O)N1CCN(C(=O)[C@@H](Cc2cccc(C(=N)N)c2)NS(=O)(=O)c2ccc3ccccc3c2)CC1	16		0.097	0.004	13.5	61	0.39	0.72	0.042	7.3	4.9	> 1000	28	
Cc1c(C)c(S(=O)(=O)N[C@H](Cc2cccc(C(=N)N)c2)C(=O)N2CCN(S(C)(=O)=O)CC2)c(C)c2c1OC(C)(C)CC2	41		0.32	0.0053	180	> 1000				97		470	58	
CN1CCN(C(=O)[C@@H](Cc2cccc(C(=N)N)c2)NS(=O)(=O)c2ccc3ccccc3c2)CC1	19		0.47	0.016	94	280	1.2	1.8	0.22		30	> 1000		Ki (Plasma kallikrein [12]): 35 µM; Ki [13]: 110 µM
N=C(N)c1cccc(C[C@@H](NS(=O)(=O)c2ccc3ccccc3c2)C(=O)N2CCN(C=O)CC2)c1	9.7		0.073	0.023	10.3	53	0.35	0.7	0.063	3.3	3.3	110	34	
N=C(N)c1cccc(CC(NS(=O)(=O)c2ccc3ccccc3c2)C(=O)N2CCN(C(=O)Oc3ccccc3)CC2)c1 (centres undefined)	43	2.3	0.028	17										
CC(=O)N1CCN(C(=O)[C@@H](Cc2cccc(C(=N)N)c2)NS(=O)(=O)c2ccc3ccccc3c2)CC1	34		0.044		12	200	0.28	0.76	0.062	15	5.2	410	32	concentration at 4 h [14]: < 40 ng/mL; concentration at 0.5 h [15]: 270 ng/mL; concentration at 0.75 h [16]: 170 ng/mL; concentration at 5 min [17]: 2080 ng/mL; concentration at 1 h [18]: 130 ng/mL; concentration at 1.5 h [19]: 100 ng/mL; concentration at 2 h [20]: 260 ng/mL; concentration at 0.25 h [21]: 410 ng/mL; concentration at 3 h [22]: 300 ng/mL; concentration at 0.5 h [23]: 450 ng/mL; concentration at 0.75 h [24]: 410 ng/mL; concentration at 5 min [25]: 230 ng/mL; concentration at 1 h [26]: 380 ng/mL; concentration at 2 h [27]: 90 ng/mL; concentration at 0.25 h [28]: 610 ng/mL; concentration at 3 h [29]: < 40 ng/mL; concentration at 1.5 h [30]: 270 ng/mL; concentration at 2 min [31]: 3550 ng/mL
CC1CNc2c(cccc2S(=O)(=O)N[C@@H](CCCNC(=N)N)C(=O)N2CCC(C)C[C@@H]2C(=O)O)C1 (single isomer, unassigned) [ARGATROBAN]							0.42	0.66	0.062					
